How the values were obtained:
human orexin-1 receptor = molecular target: T1, human orexin-1 receptor (Homo sapiens, UniProt O43613); test: Intracellular calcium measurement (FLIPR Tetra), orexin receptor antagonistic activity, OX1; assay type: cell-based; conditions: CHO cells expressing human orexin-1 receptor, 3 nM orexin-A
T1 construct: expressed in transfected cells; host or cells: CHO (Chinese hamster ovary) cells, kept under G418 selection
T1 sequence (O43613 1-425): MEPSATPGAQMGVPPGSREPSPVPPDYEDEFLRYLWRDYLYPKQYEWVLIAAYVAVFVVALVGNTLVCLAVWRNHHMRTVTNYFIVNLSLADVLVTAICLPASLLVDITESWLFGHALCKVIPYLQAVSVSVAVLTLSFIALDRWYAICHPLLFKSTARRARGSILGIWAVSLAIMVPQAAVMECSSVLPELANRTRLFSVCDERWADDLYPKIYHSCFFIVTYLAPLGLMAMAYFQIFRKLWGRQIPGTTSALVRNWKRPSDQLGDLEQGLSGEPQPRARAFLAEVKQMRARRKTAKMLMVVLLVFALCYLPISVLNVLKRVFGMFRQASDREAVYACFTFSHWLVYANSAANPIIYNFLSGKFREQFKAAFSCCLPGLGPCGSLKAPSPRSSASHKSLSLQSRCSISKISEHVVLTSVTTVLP
How it was run: (§1)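 Recombinant CHO cells expressing human OX1 or OX2, loaded with fluo-4 AM plus probenecid, were preincubated with antagonist 10 min, then stimulated with 3 nM human orexin-A. Peak fluorescence was compared with vehicle; IC50 derived, sometimes normalized to an on-plate reference compound; two pipetting/cell-splitting conditions were used.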

human orexin-2 receptor = molecular target: T2, human orexin-2 receptor (Homo sapiens, UniProt O43614); test: Intracellular calcium measurement (FLIPR Tetra), orexin receptor antagonistic activity, OX2; assay type: cell-based; conditions: CHO cells expressing human orexin-2 receptor, 3 nM orexin-A
T2 construct: expressed in transfected cells; host or cells: CHO (Chinese hamster ovary) cells, kept under G418 selection
T2 sequence (O43614 1-444): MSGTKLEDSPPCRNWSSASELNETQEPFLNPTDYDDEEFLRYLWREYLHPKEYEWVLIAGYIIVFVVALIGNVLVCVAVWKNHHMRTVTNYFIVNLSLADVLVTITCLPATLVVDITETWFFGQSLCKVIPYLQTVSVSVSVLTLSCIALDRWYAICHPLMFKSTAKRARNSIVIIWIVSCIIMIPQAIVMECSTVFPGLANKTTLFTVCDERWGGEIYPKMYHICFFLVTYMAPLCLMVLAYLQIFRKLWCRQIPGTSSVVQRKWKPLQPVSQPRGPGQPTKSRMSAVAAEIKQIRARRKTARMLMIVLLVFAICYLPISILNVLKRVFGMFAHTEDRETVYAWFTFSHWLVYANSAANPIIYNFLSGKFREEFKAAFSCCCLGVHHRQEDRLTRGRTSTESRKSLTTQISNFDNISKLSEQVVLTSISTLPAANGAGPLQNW
How it was run: as §1

[1] = conditions B, normalized (*) using IC50 of on-plate reference compound

Compound: COc1ccc(-c2sc(C)nc2C(=O)N(CCO)CCc2c[nH]c3ccc(F)cc23)cn1 [Example 308, 5-(6-Methoxy-pyridin-3-yl)-2-methyl-thiazole-4-carboxylic acid [2-(5-fluoro-1H-indol-3-yl)-ethyl]-(2-hydroxy-ethyl)-amide]
- IC50 (human orexin-1 receptor; [1]): 357 nM
- IC50 (human orexin-2 receptor; [1]): 25 nM

Compound: COc1ccc(CCN(CC2CC2)C(=O)c2nc(N(C)C)sc2-c2cccc(C)c2)cc1OC [Example 30, 2-Dimethylamino-5-m-tolyl-thiazole-4-carboxylic acid cyclopropylmethyl-[2-(3,4-dimethoxy-phenyl)-ethyl]-amide]
- IC50 (human orexin-1 receptor; conditions A): 206 nM
- IC50 (human orexin-2 receptor; conditions A): 30 nM

Compound: Cc1cccc(-c2ncncc2C(=O)N(CCc2c[nH]c3ccccc23)CC(F)(F)F)c1 [Example 549, 4-m-Tolyl-pyrimidine-5-carboxylic acid [2-(1H-indol-3-yl)-ethyl]-(2,2,2-trifluoro-ethyl)-amide]
- IC50 (human orexin-1 receptor; [1]): 1160 nM
- IC50 (human orexin-2 receptor; [1]): 130 nM

Compound: COc1cccc(-c2ncccc2C(=O)N(CCc2ccc(OC)c(OC)c2)CC2CC2)c1 [Example 397, N-Cyclopropylmethyl-N-[2-(3,4-dimethoxy-phenyl)-ethyl]-2-(3-methoxy-phenyl)-nicotinamide]
- IC50 (human orexin-1 receptor; conditions B): 266 nM
- IC50 (human orexin-2 receptor; conditions B): 7 nM

Compound: O=C(c1cncnc1-c1ccc(Br)c(Cl)c1)N(CCc1c[nH]c2ccccc12)CC1CC1 [Example 513, 4-(4-Bromo-3-chloro-phenyl)-pyrimidine-5-carboxylic acid cyclopropylmethyl-[2-(1H-indol-3-yl)-ethyl]-amide]
- IC50 (human orexin-1 receptor; [1]): 36 nM
- IC50 (human orexin-2 receptor; [1]): 17 nM

Compound: Cc1ccc(-c2nccnc2C(=O)N(CCc2c[nH]c3ccc(F)cc23)CC(F)F)cc1C [Example 297, 3-(3,4-Dimethyl-phenyl)-pyrazine-2-carboxylic acid (2,2-difluoro-ethyl)-[2-(5-fluoro-1H-indol-3-yl)-ethyl]-amide]
- IC50 (human orexin-1 receptor; [1]): 702 nM
- IC50 (human orexin-2 receptor; [1]): 136 nM

Compound: Cc1cccc(-c2sc(CN)nc2C(=O)N(CCc2c[nH]c3ccc(F)cc23)CC2CC2)c1 [Example 433, 2-Aminomethyl-5-m-tolyl-thiazole-4-carboxylic acid cyclopropylmethyl-[2-(5-fluoro-1H-indol-3-yl)-ethyl]-amide]
- IC50 (human orexin-1 receptor; [1]): 280 nM
- IC50 (human orexin-2 receptor; [1]): 239 nM

Compound: COc1ccc(CCN(CC2CC2)C(=O)c2nc(C)sc2-c2ccc(C)c(C)c2)cc1SC [Example 201, 5-(3,4-Dimethyl-phenyl)-2-methyl-thiazole-4-carboxylic acid cyclopropylmethyl-[2-(4-methoxy-3-methylsulfanyl-phenyl)-ethyl]-amide]
- IC50 (human orexin-1 receptor; conditions B): 21 nM
- IC50 (human orexin-2 receptor; conditions B): 15 nM

Compound: COc1ccc(CCN(C(=O)c2nc(C)sc2-c2ccc(C)c(C)c2)C2CC2)cc1OC [Example 123, 5-(3,4-Dimethyl-phenyl)-2-methyl-thiazole-4-carboxylic acid cyclopropyl-[2-(3,4-dimethoxy-phenyl)-ethyl]-amide]
- IC50 (human orexin-1 receptor; conditions B): 26 nM
- IC50 (human orexin-2 receptor; conditions B): 4 nM

Compound: COc1ccc(-c2cccnc2C(=O)N(CCc2c[nH]c3ccc(C)cc23)CC2CC2)cn1 [Example 357]
- IC50 (human orexin-1 receptor; [1]): 14 nM
- IC50 (human orexin-2 receptor; [1]): 30 nM

Compound: COc1ccc(-c2sc(C)nc2C(=O)N(CCc2c[nH]c3cc(F)ccc23)CC2CC2)cn1 [Example 350, 5-(6-Methoxy-pyridin-3-yl)-2-methyl-thiazole-4-carboxylic acid cyclopropylmethyl-[2-(6-fluoro-1H-indol-3-yl)-ethyl]-amide]
- IC50 (human orexin-1 receptor; [1]): 4 nM
- IC50 (human orexin-2 receptor; [1]): 17 nM

Compound: COc1ccc(-c2nccnc2C(=O)N(CCc2c[nH]c3c(C)cccc23)CC2CC2)cc1 [Example 436, 3-(4-Methoxy-phenyl)-pyrazine-2-carboxylic acid cyclopropylmethyl-[2-(7-methyl-1H-indol-3-yl)-ethyl]-amide]
- IC50 (human orexin-1 receptor; [1]): 24 nM
- IC50 (human orexin-2 receptor; [1]): 2 nM

Compound: COc1cc(CCN(CC2CC2)C(=O)c2nc(C)sc2-c2ccc(C)c(C)c2)ccc1O [Example 207, 5-(3,4-Dimethyl-phenyl)-2-methyl-thiazole-4-carboxylic acid cyclopropylmethyl-[2-(4-hydroxy-3-methoxy-phenyl)-ethyl]-amide]
- IC50 (human orexin-1 receptor; conditions B): 538 nM
- IC50 (human orexin-2 receptor; conditions B): 12 nM

— patent US20110212968A1, “PHENETHYLAMIDE DERIVATIVES AND THEIR HETEROCYCLIC ANALOGUES” (priority 2008, published 2011)
